Laboratory results taken from patent US20240269116A1, “USE OF MMP INHIBITORS FOR TREATING ACUTE RESPIRATORY DISTRESS SYNDROME” (Foresee Pharmaceuticals Co., Ltd., priority 2021, published 2024).
Entries after “also recorded” stand apart in the source; their conditions may differ.

Test system: LPS-induced acute lung injury (ALI)
Assay: LPS-induced mice acute lung injury (ALI) model, BAL fluid cell counts and lung histology at 24 hours
Type: in vivo, Male C57BL/6 mice
Protocol: The compound of formula (F-I) was evaluated for the therapeutic efficacy in the LPS-induced mice ALI model. In this study, animals were anesthetized with 2.5% isoflurane inhalation. LPS was used to create ALI at the dose of 3 mg/kg in 50 μl via a direct intratracheal injection. For sham animals, an equal volume of saline solution was directly injected into the trachea. After LPS injection, the test article compound of formula (F-I) was dosed at different single oral doses and different therapeutic time points. Male C57BL/6 mice (n=100) were used in this study. DEX was used as positive control. Animals were randomly divided into 10 groups and dose regimens are described in Table 1. At 24 hours after injection, all animals were euthanized and processed for bronchoalveolar lavage (BAL) fluid collection from bilateral lungs and formalin-fixation of lung tissue pathology studies. [table]

[1] = lung histology at 24 hours of ALI, treatment at 4 or 8 hours of ALI, all dosages, vs model
[2] = single oral dose at 4 or 8 hours of ALI (F-I 1, 3, 10 mg/kg; DEX 3 mg/kg), BAL at 24 hours, vs Vehicle group

SMILES: Cc1cccc(COc2ccc(Sc3ccoc3C3NC(=O)NC3=O)cc2)c1 (stereo not drawn) [compound of formula (F-I)]
- therapeutic efficacy at lower doses (1 mg/kg via oral gavage at 4 or 8 hours of ALI): significant therapeutic efficacy
- overall efficacy at 10 mg/kg (10 mg/kg at 4 hours and 8 hours of ALI, conclusion): better
- dose dependence of lung tissue protection (1, 3, 10 mg/kg, dosing at 4 or 8 hours of ALI, histology): no clear dose-dependent lung tissue protection
- overall therapeutic efficacy, dosing at 8 hours vs 4 hours of ALI (conclusion, dosing at 8 hours compared with 4 hours of ALI): slightly better
- efficacy in BAL fluid analysis, comparison of doses (dose of 10 mg/kg compared with 1 and 3 mg/kg): best efficacy
- alveolar damages (lung histology) [1]: reduction
- bronchial and arteriole damages (lung histology) [1]: reduction
- total lung injury (lung histology) [1]: reduction
- neutrophils in BAL fluid [2]: clear trend of dose-dependent reduction; also recorded: reduced
- total inflammatory cells in BAL fluid [2]: clear trend of dose-dependent reduction; also recorded: reduced
- effect on BAL fluid cells, treatment at 8 hours vs 4 hours of ALI (treatment at 8 hours of ALI compared to 4 hours of ALI): better effect than that at 4 hours of ALI
- lung histology efficacy, treatment at 8 hours vs 4 hours of ALI (treatment at 8 hours of ALI compared to 4 hours of ALI, histology at 24 hours): better efficacy
